In patent US11377425B1, “Small molecule modulators of IL-17” (LEO Pharma A/S, priority 2018, dated 2022):

Biological target: T1, human IL-17AA (Homo sapiens, UniProt Q16552)
T1 construct: host or cells: HEK (human embryonic kidney) cells
T1 sequence (Q16552 24-155): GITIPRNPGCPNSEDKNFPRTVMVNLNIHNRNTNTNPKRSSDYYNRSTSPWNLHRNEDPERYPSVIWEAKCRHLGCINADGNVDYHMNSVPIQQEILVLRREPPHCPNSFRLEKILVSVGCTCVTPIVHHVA
Experiment: IL-8 release assay in human epithelial keratinocytes adult (HEKa)
Format: cell-based
Settings: HEKa cells, 3 ng/mL HEK-human IL-17AA + 10 ng/mL human TNFalpha; read-out: Rel EC50 IL-8 release assay
Experimental: Example 138: IL-8 Release Assay in Human Epithelial Keratinocytes Adult (HEKa)
Keratinocytes were seeded at 3500 cells/well in 384-well ViewPlates (Perkin Elmer) in Epilife medium (Thermo Fisher) containing human keratinocyte growth supplement (HKGS) without hydrocortisone and incubated in a humid incubator at 37° C. 5% CO2, overnight. The following day growth medium was removed and 25 μl fresh Epilife medium added. 75 nL test compound in 100% DMSO was added into each well reserved for test compounds, by the use of acoustic pipetting. The remaining wells received an equal volume of DMSO only, as vehicle control, or terfenadine in DMSO, as a positive control for any cytotoxic compounds. Subsequently, another 25 μL Epilife medium was added to each well. Finally, wells containing test compounds and wells prepared to yield maximum stimulation received […] of 9 ng/mL recombinant, human embryonic kidney cell (HEK)-derived human IL-17AA+30 ng/mL human TNF-alpha, in Epilife medium. Wells prepared to define 100% inhibition of IL-17 effects received 25 μL of 30 ng/mL human TNF-alpha alone, in Epilife medium. Final concentrations were 3 ng/mL HEK-human IL-17AA+10 ng/mL human TNFalpha (maximum stimulation) and 10 ng/mL human TNFalpha alone (100% inhibition, Emax), respectively. Cells were incubated for 68-72 hours in the incubator. IL-8 released from the cells was measured by the use of a commercial homogenous time-resolved fluorescence (HTRF) assay (CisBio). 2 μL cell culture supernatant was transferred to a 384-well Proxiplate. 5 μL HTRF reagent was added and the plates incubated sealed in the dark for 3-22 hours at room temperature. Time-resolved fluorescence was read at 665 vs 620 nm, with excitation at 320 nm, and IL-8 levels calculated as percent of controls. Reduction of the amount of secreted IL-8 indicates decreased IL-17 signaling. Concentration response curves were fitted by the use of a four-parameter logistic equation. Relative IC50 and Emax were reported from curves showing acceptable fit (r^2>0.9). Cytotoxicity was measured in the cell-containing Viewplates following addition of 7 μL PrestoBlue (Thermo Fisher) and incubation for 2.5-3 hours at room temperature, by measuring fluorescence at 615 nm (excitation at 535 nm). Fluorescence was directly proportional to the amount of metabolic activity. Reduction of fluorescence signal indicated cytotoxicity.
Compounds of the present invention were tested in the IL-8 release assay in human epithelial keratinocytes.
Compounds having a Relative EC50 of X; wherein X<100 nM; are indicated with *
Compounds having a Relative EC50 of X; wherein 100 nM<X<1000 nM; are indicated with **
Compounds having a Relative EC50 of X; wherein 1000 nM<X; are indicated with ***

EC50	Structure (SMILES)
> 1000 nM	Cc1n[nH]c(C)c1-c1ccc(NC(=O)C(NC(=O)c2ccnn2C)[C@@H]2CCOc3ccccc32)cc1 (mixture of isomers) [Example 26, 1:3 mixture of N-[(1S)-1-[(4R)-chroman-4-yl]-2-[4-(3,5-dimethyl-1H-pyrazo 4-yl)anilino]-2-oxo-ethyl]-2-methyl-pyrazole-3-carboxamide and N-[(1R)-1-[(4R)-chroman-4-yl]-2-[4-(3,5-dimethyl-1H-pyrazol-4-yl)anilino]-2-oxo-ethyl]-2-methyl-pyrazole-3-carboxamide]
> 1000 nM	Cc1n[nH]c(C)c1-c1ccc(NC(=O)C(NC(=O)c2ccnn2C(C)C(C)O)C(C2CC2)C2CC2)cc1 (mixture of isomers) [Example 161, N-[(1S)-1-(dicyclopropylmethyl)-2-[4-(3,5-dimethyl-1H-pyrazol-4-yl)anilino]-2-oxo-ethyl]-2-[(1S,25) and (1R,2R)-2-hydroxy-1-methyl-propyl]pyrazole-3-carboxamide]
< 100 nM	Cc1n[nH]c(C)c1-c1ccc(NC(=O)[C@@H](NC(=O)c2ccnn2C)C(C)CC(C)(C)C)cc1 (mixture of isomers) [Example 196]
100 to 1000 nM	Cc1n[nH]c(C)c1-c1ccc(NC(=O)[C@@H](NC(=O)c2ccnn2C)C(C)C2CCCC2)cc1 (mixture of isomers) [Example 221]
> 1000 nM	Cc1n[nH]c(C)c1-c1ccc(NC(=O)C(NC(=O)c2ccnn2C)C(C(F)(F)F)C(F)(F)F)cc1 (racemic) [Example 14]
100 to 1000 nM	Cc1n[nH]c(C)c1-c1ccc(NC(=O)C(NC(=O)c2ccnn2C(C)C)C2CCC3(CC2)CC3)cc1 (racemic) [Example 20, N-[2-[4-(3,5-dimethyl-1H-pyrazol-4-yl)anilino]-2-oxo-1-spiro[2.5]octan-6-yl-ethyl]-2-isopropyl-pyrazole-3-carboxamide]
100 to 1000 nM	Cc1n[nH]c(C)c1-c1ccc(NC(=O)C(NC(=O)c2ccnn2C)C2CCC3(CC2)CC3)cc1 (racemic) [Example 21, N-[2-[4-(3,5-dimethyl-1H-pyrazol-4-yl)anilino]-2-oxo-1-spiro[2.5]octan-6-yl-ethyl]-2-methyl-pyrazole-3-carboxamide]
< 100 nM	Cc1n[nH]c(C)c1-c1ccc(NC(=O)C(NC(=O)c2ccnn2C(C)C)C(C2CC2)C2CC2)cc1 (racemic) [Example 31, N-[1-(dicyclopropylmethyl)-2-[4-(3,5-dimethyl-1H-pyrazol-4-yl)anilino]-2-oxo-ethyl]-2-isopropyl-pyrazole-3-carboxamide]
< 100 nM	CCn1nccc1C(=O)NC(C(=O)Nc1ccc(-c2c(C)n[nH]c2C)cc1)C(C1CCC1)C1CCC1 (racemic) [Example 35, N-[1-[di(cyclobutyl)methyl]-2-[4-(3,5-dimethyl-1H-pyrazol-4-yl)anilino]-2-oxo-ethyl]-2-ethyl-pyrazole-3-carboxamide]
< 100 nM	Cc1n[nH]c(C)c1-c1ccc(NC(=O)C(NC(=O)c2ccnn2C(C)C)C(C2CCC2)C2CCC2)cc1 (racemic) [Example 38, N-[1-[di(cyclobutyl)methyl]-2-[4-(3,5-dimethyl-1H-pyrazol-4-yl)anilino]-2-oxo-ethyl]-2-isopropyl-pyrazole-3-carboxamide]
100 to 1000 nM	Cc1n[nH]c(C)c1-c1ccc(NC(=O)C(NC(=O)c2ccnn2C)C2CCCC2C)cc1 (racemic) [Example 252, N-[2-[4-(3,5-dimethyl-1H-pyrazol-4-yl)anilino]-1-(2-methylcyclopentyl)-2-oxo-ethyl]-2-methyl-pyrazole-3-carboxamide]
100 to 1000 nM	Cc1n[nH]c(C)c1-c1ccc(NC(=O)C(NC(=O)c2ccnn2C(C)C)C(C2CC(F)(F)C2)C2CC(F)(F)C2)cc1 (racemic) [Example 294, N-[1-[bis(3,3-difluorocyclobutyl)methyl]-2-[4-(3,5-dimethyl-1H-pyrazol-4-yl)anilino]-2-oxo-ethyl]-2-isopropyl-pyrazole-3-carboxamide]
> 1000 nM	Cc1n[nH]c(C)c1-c1ccc(NC(=O)C(NC(=O)c2ccnn2C(C)C)C(C2CC2)C2CC2)cc1 (single isomer, unassigned) [Example 33, N-[1-(dicyclopropylmethyl)-2-[4-(3,5-dimethyl-1H-pyrazol-4-yl)anilino]-2 oxo-ethyl]-2-isopropyl-pyrazole-3-carboxamide]
100 to 1000 nM	CCn1nccc1C(=O)NC(C(=O)Nc1ccc(-c2c(C)n[nH]c2C)cc1)C(C1CCC1)C1CCC1 (single isomer, unassigned) [Example 37, N-[1-[di(cyclobutyl)methyl]-2-[4-(3,5-dimethyl-1H-pyrazol-4-yl)anilino]-2-oxo-ethyl]-2-ethyl-pyrazole-3-carboxamide]
100 to 1000 nM	Cc1n[nH]c(C)c1-c1ccc(NC(=O)C(NC(=O)c2ccnn2C(C)C)C(C2CCC2)C2CCC2)cc1 (single isomer, unassigned) [Example 40, N-[1-[di(cyclobutyl)methyl]-2-[4-(3,5-dimethyl-1H-pyrazol-4-yl)anilino]-2-oxo-ethyl]-2-isopropyl-pyrazole-3-carboxamide]
> 1000 nM	Cc1ncn(C)c1-c1ccc(NC(=O)C(NC(=O)OC(C)(C)C)C2CCC(F)(F)CC2)cc1 (single isomer, unassigned) [Example 85, tert-butyl N-[1-(4,4-difluorocyclohexyl)-2-[4-(3,5-dimethylimidazol-4-yl)anilino]-2-oxo-ethyl]carbamate]
> 1000 nM	Cc1ncn(C)c1-c1ccc(NC(=O)C(NC(=O)OC(C)(C)C)C2CCC(F)(F)CC2)cc1 (single isomer, unassigned) [Example 86, tert-butyl N-[1-(4,4-difluorocyclohexyl)-2-[4-(3,5-dimethylimidazol-4-yl)anilino]-2-oxo-ethyl]carbamate]
100 to 1000 nM	Cc1n[nH]c(C)c1-c1ccc(NC(=O)[C@@H](NC(=O)c2ccnn2C(C)CO)C2CCCCC2)cc1 (single isomer, unassigned) [Example 104]
100 to 1000 nM	Cc1n[nH]c(C)c1-c1ccc(NC(=O)[C@@H](NC(=O)c2ccnn2C(C)CO)C2CCCCC2)cc1 (single isomer, unassigned) [Example 105]
< 100 nM	Cc1n[nH]c(C)c1-c1ccc(NC(=O)[C@@H](NC(=O)c2ccnn2[C@@H](C)CO)C(C2CC2)C2CC2)cc1 (single isomer, unassigned) [Example 119]
< 100 nM	Cc1n[nH]c(C)c1-c1ccc(NC(=O)[C@@H](NC(=O)c2ccnn2C(C)CO)C(C2CCC2)C2CCC2)cc1 (single isomer, unassigned) [Example 123]
< 100 nM	Cc1n[nH]c(C)c1-c1ccc(NC(=O)[C@@H](NC(=O)c2ccnn2C(C)CO)C(C2CCC2)C2CCC2)cc1 (single isomer, unassigned) [Example 124]
100 to 1000 nM	Cc1n[nH]c(C)c1-c1ccc(NC(=O)C(NC(=O)c2ccnn2CCC(C)O)C2CCCCCCC2)cc1 (single isomer, unassigned) [Example 142, N-[1-cyclooctyl-2-[4-(3,5 dimethyl-1H-pyrazol-4-yl)anilino]-2-oxo-ethyl]-2-(3-hydroxybutyl)pyrazole-3-carboxamide]
100 to 1000 nM	Cc1n[nH]c(C)c1-c1ccc(NC(=O)C(NC(=O)c2ccnn2CCC(C)O)C2CCCCCCC2)cc1 (single isomer, unassigned) [Example 143, N-[1-cyclooctyl-2-[4-(3,5-dimethyl-1H-pyrazol-4-yl)anilino]-2-oxo-ethyl]-2-(3-hydroxybutyl)pyrazole-3-carboxamide]
< 100 nM	Cc1n[nH]c(C)c1-c1ccc(NC(=O)C(NC(=O)c2ccnn2CCC(C)O)C2CCCCCCC2)cc1 (single isomer, unassigned) [Example 144, N-[1-cyclooctyl-2-[4-(3,5-dimethyl-1H-pyrazol-4-yl)anilino]-2-oxo-ethyl]-2-(3-hydroxybutyl)pyrazole-3-carboxamide]
< 100 nM	Cc1n[nH]c(C)c1-c1ccc(NC(=O)C(NC(=O)c2ccnn2CCC(C)O)C2CCCCCCC2)cc1 (single isomer, unassigned) [Example 145, N-[1-cyclooctyl-2-[4-(3,5-dimethyl-1H-pyrazol-4-yl)anilino]-2-oxo-ethyl]-2-(3-hydroxybutyl)pyrazole-3-carboxamide]
